Measured values from patent US12145929B2, “Piperidine derivative and pharmaceutical composition for inhibiting autotaxin comprising same” (NEXTGEN BIOSCIENCE CO., LTD., priority 2021, dated 2024).

Each molecule was assayed against human Autotaxin protein (Homo sapiens, UniProt Q13822) (assay: Evaluation of inhibitory activity against human Autotaxin protein (18:1 LysoPC substrate, choline assay kit, absorbance 570 nm)). Conditions: compound at 500 nM, 2 hours at 37° C.
Format: biochemical
Protocol: The solution of each synthesized compound (80 uM, 100% dimethyl sulfoxide) was sequentially diluted 5 times with dimethyl sulfoxide to prepare 6 concentrations. Each concentration of compound was diluted two-fold with 1× test buffer (50 mM Tris-Cl (pH 8.0), 5 mM KCl, 1 mM CaCl2), 1 mM MgCl2, 140 mM NaCl, deionized water, 1 mg/mL BSA), and 1 uL (1.25% dimethyl sulfoxide) of this diluted mixture was dispensed into each well of a 96 well clear round bottom plate. 9 uL of 1× test buffer were added to each well, followed by the addition of 20 uL of 240 nM human Autotaxin protein (buffer: 50 mM Tris-HCl, pH 8.0, with 150 mM sodium chloride and 20% glycerol). 10 uL of sonicated 360 uM 18:1 LysoPC (diluted with 1× test buffer) were added to each well. The reaction was performed for 2 hours in a shaking incubator at 37° C., and a secondary reaction mixture (choline assay kit, KA1662) (65 uL of 1× test buffer: 1 uL of choline oxidase: 1 uL of dye probe) was prepared. 60 uL of the secondary reaction mixture were added to the reaction plate and reacted on a shaker for 30 minutes. Using a SpectraMax iD3 microplate reader, the absorbance was measured at a wavelength of 570 nm. The percentage of inhibition activity (% inhibition) was calculated by the Formula: (1−Absorbancetestgroup/Absorbancecontrol group)×100.

inhibition at 0.5 µM	inhibition (%) at 500 nM	SMILES
30.2%	–	Fc1cc2c(cc1F)CC(Nc1ncc(-c3nnc(N4CCC(c5nnc(C(F)(F)F)o5)CC4)o3)cn1)C2 [Example 24, N-(5,6-difluoro-2,3-dihydro-1H-inden-2-yl)-5-(5-(4-(5-(trifluoromethyl)-1,3,4-oxadiazol-2-yl)piperidin-1-yl)-1,3,4-oxadiazol-2-yl)pyrimidin-2-amine]
31.1%	–	Fc1cc2c(cc1F)CC(Nc1ncc(-c3nnc(N4CCC(c5nnc(C(F)F)o5)CC4)o3)cn1)C2 [Example 25, N-(5,6-difluoro-2,3-dihydro-1H-inden-2-yl)-5-(5-(4-(5-(difluoromethyl)-1,3,4-oxadiazol-2-yl)piperidin-1-yl)-1,3,4-oxadiazol-2-yl)pyrimidin-2-amine]
27.9%	–	Fc1cc2c(cc1F)CC(Nc1ncc(-c3nnc(N4CCC(c5ncon5)CC4)o3)cn1)C2 [Example 26, 5-(5-(4-(1,2,4-Oxadiazol-3-yl)piperidin-1-yl)-1,3,4-oxadiazol-2-yl)-N-(5,6-difluoro-2,3-dihydro-1H-inden-2-yl)pyrimidin-2-amine]
29%	–	Fc1cc2c(cc1F)CC(Nc1ncc(-c3nnc(N4CCC(c5nnco5)CC4)o3)cn1)C2 [Example 27, 5-(5-(4-(1,3,4-Oxadiazol-2-yl)piperidin-1-yl)-1,3,4-oxadiazol-2-yl)-N-(5,6-difluoro-2,3-dihydro-1H-inden-2-yl)pyrimidin-2-amine]
52.5%	–	Fc1cc2c(cc1F)CC(Nc1ncc(-c3nnc(N4CCC(n5cnnn5)CC4)o3)cn1)C2 [Example 28, 5-(5-(4-(1H-Tetrazol-1-yl)piperidin-1-yl)-1,3,4-oxadiazol-2-yl)-N-(5,6-difluoro-2,3-dihydro-1H-inden-2-yl)pyrimidin-2-amine]
90.8%	–	Cc1nn[nH]c1C1CCN(c2nnc(-c3cnc(NC4Cc5cc(F)c(F)cc5C4)nc3)o2)CC1 [Example 29, N-(5,6-difluoro-2,3-dihydro-1H-inden-2-yl)-5-(5-(4-(4-methyl-1H-1,2,3-triazol-5-yl)piperidin-1-yl)-1,3,4-oxadiazol-2-yl)pyrimidin-2-amine]
97.8%	–	O=C(/C=C/c1cnc(NC2Cc3cc(F)c(F)cc3C2)nc1)N1CCC(c2cnn[nH]2)CC1 [Example 30, (E)-1-(4-(1H-1,2,3-triazol-5-yl)piperidin-1-yl)-3-(2-((5,6-difluoro-2,3-dihydro-1H-inden-2-yl)amino)pyrimidin-5-yl)prop-2-en-1-one]
8.1%	–	c1ccc(Cn2nncc2C2CCN(c3cnc(-c4cnc(NC5Cc6ccccc6C5)nc4)o3)CC2)cc1 [Example 31, 5-(5-(4-(1-Benzyl-1H-1,2,3-triazol-5-yl)piperidin-1-yl)oxazol-2-yl)-N-(2,3-dihydro-1H-inden-2-yl)pyrimidin-2-amine]
34.3%	–	CN(c1ncc(-c2nnc(N3CCC(c4cnn[nH]4)CC3)o2)cn1)C1Cc2cc(F)c(F)cc2C1 [Example 32, 5-(5-(4-(1H-1,2,3-triazol-5-yl)piperidin-1-yl)-1,3,4-oxadiazol-2-yl)-N-(5,6-difluoro-2,3-dihydro-1H-inden-2-yl)-N-methylpyrimidin-2-amine]
78.4%	–	Cn1nncc1C1CCN(c2nnc(-c3cnc(NC4Cc5cc(F)c(F)cc5C4)nc3)o2)CC1 [Example 33, N-(5,6-difluoro-2,3-dihydro-1H-inden-2-yl)-5-(5-(4-(1-methyl-1H-1,2,3-triazol-5-yl)piperidin-1-yl)-1,3,4-oxadiazol-2-yl)pyrimidin-2-amine]
17.3%	–	Cn1cc(C2CCN(c3nnc(-c4cnc(NC5Cc6cc(F)c(F)cc6C5)nc4)o3)CC2)nn1 [Example 34, N-(5,6-difluoro-2,3-dihydro-1H-inden-2-yl)-5-(5-(4-(1-methyl-1H-1,2,3-triazol-4-yl)piperidin-1-yl)-1,3,4-oxadiazol-2-yl)pyrimidin-2-amine]
96%	–	c1ccc2c(c1)CC(Nc1ncc(C3CC(N4CCC(c5cnn[nH]5)CC4)=NO3)cn1)C2 (stereo not shown) [Example 35, N-indan-2-yl-5-[3-[4-(1H-triazol-5-yl)-1-piperidyl]-4,5-dihydroisoxazol-5-yl]pyrimidin-2-amine]
53.4%	–	c1ccc2c(c1)CC(Nc1ncc(-c3cc(N4CCC(c5cnn[nH]5)CC4)no3)cn1)C2 [Example 36, 5-(3-(4-(1H-1,2,3-triazol-5-yl)piperidin-1-yl)isoxazol-5-yl)-N-(2,3-dihydro-1H-inden-2-yl)pyrimidin-2-amine]
53.2%	–	Fc1cc2c(cc1F)CC(Nc1ncc(-c3cc(N4CCC(c5cnn[nH]5)CC4)no3)cn1)C2 [Example 38, 5-(3-(4-(1H-1,2,3-triazol-5-yl)piperidin-1-yl)isoxazol-5-yl)-N-(5,6-difluoro-2,3-dihydro-1H-inden-2-yl)pyrimidin-2-amine]
97.2%	–	Fc1ccc2c(c1)CC(Nc1ncc(C3CC(N4CCC(c5cnn[nH]5)CC4)=NO3)cn1)C2 (stereo not shown) [Example 39, 5-(3-(4-(1H-1,2,3-triazol-5-yl)piperidin-1-yl)-4,5-dihydroisoxazol-5-yl)-N-(5-fluoro-2,3-dihydro-1H-inden-2-yl)pyrimidin-2-amine]
68.5%	–	Fc1ccc2c(c1)CC(Nc1ncc(-c3cc(N4CCC(c5cnn[nH]5)CC4)no3)cn1)C2 (stereo not shown) [Example 40, 5-(3-(4-(1H-1,2,3-triazol-5-yl)piperidin-1-yl)isoxazol-5-yl)-N-(5-fluoro-2,3-dihydro-1H-inden-2-yl)pyrimidin-2-amine]
–	40.6%	Fc1cc(F)cc(CNc2ncc(C3CC(N4CCC(c5cnn[nH]5)CC4)=NO3)cn2)c1 (stereo not shown) [Example 41, N-[(3,5-difluorophenyl)methyl]-5-[3-[4-(1H-triazol-5-yl)-1-piperidyl]-4,5-dihydroisoxazol-5-yl]pyrimidin-2-amine]
–	8.6%	c1ccc(CNc2ncc(C3CC(N4CCC(c5cnn[nH]5)CC4)=NO3)cn2)cc1 (stereo not shown) [Example 42, N-benzyl-5-[3-[4-(1H-triazol-5-yl)-1-piperidyl]-4,5-dihydroisoxazol-5-yl]pyrimidin-2-amine]
–	4.6%	Fc1ccc(CNc2ncc(C3CC(N4CCC(c5cnn[nH]5)CC4)=NO3)cn2)cc1F (stereo not shown) [Example 43, N-[(3,4-difluorophenyl)methyl]-5-[3-[4-(1H-triazol-5-yl)-1-piperidyl]-4,5-dihydroisoxazol-5-yl]pyrimidin-2-amine]
71.3%	–	Clc1cc(Cl)cc(CNc2ncc(C3CC(N4CCC(c5cnn[nH]5)CC4)=NO3)cn2)c1 (stereo not shown) [Example 44, 5-(3-(4-(1H-1,2,3-triazol-5-yl)piperidin-1-yl)-4,5-dihydroisoxazol-5-yl)-N-(3,5-dichlorobenzyl)pyrimidin-2-amine]
1.6%	–	c1cc2c(cc1CNc1ncc(C3CC(N4CCC(c5cnn[nH]5)CC4)=NO3)cn1)OCO2 (stereo not shown) [Example 45, 5-(3-(4-(1H-1,2,3-triazol-5-yl)piperidin-1-yl)-4,5-dihydroisoxazol-5-yl)-N-(benzo[d][1,3]dioxol-5-ylmethyl)pyrimidin-2-amine]
29.2%	–	Clc1cc(Cl)cc(CCNc2ncc(C3CC(N4CCC(c5cnn[nH]5)CC4)=NO3)cn2)c1 (stereo not shown) [Example 47, 5-(3-(4-(1H-1,2,3-triazol-5-yl)piperidin-1-yl)-4,5-dihydroisoxazol-5-yl)-N-(3,5-dichlorophenethyl)pyrimidin-2-amine]
3.4%	–	CS(=O)(=O)c1cccc(CNc2ncc(C3CC(N4CCC(c5cnn[nH]5)CC4)=NO3)cn2)c1 (stereo not shown) [Example 48, 5-(3-(4-(1H-1,2,3-triazol-5-yl)piperidin-1-yl)-4,5-dihydroisoxazol-5-yl)-N-(3-(methylsulfonyl)benzyl)pyrimidin-2-amine]
1.2%	–	CS(=O)(=O)c1ccc(CNc2ncc(C3CC(N4CCC(c5cnn[nH]5)CC4)=NO3)cn2)cc1 (stereo not shown) [Example 49, 5-(3-(4-(1H-1,2,3-triazol-5-yl)piperidin-1-yl)-4,5-dihydroisoxazol-5-yl)-N-(4-(methylsulfonyl)benzyl)pyrimidin-2-amine]
7%	–	c1ccc2c(c1)CC(Nc1ncc(C3CC(N4CCC(c5nnn[nH]5)CC4)=NO3)cn1)C2 (stereo not shown) [Example 50, 5-(3-(4-(1H-tetrazol-5-yl)piperidin-1-yl)-4,5-dihydroisoxazol-5-yl)-N-(2,3-dihydro-1H-inden-2-yl)pyrimidin-2-amine]
13.2%	–	FC(F)c1nnc(C2CCN(C3=NOC(c4cnc(NC5Cc6ccccc6C5)nc4)C3)CC2)o1 (stereo not shown) [Example 51, 5-(3-(4-(5-(Difluoromethyl)-1,3,4-oxadiazol-2-yl)piperidin-1-yl)-4,5-dihydroisoxazol-5-yl)-N-(2,3-dihydro-1H-inden-2-yl)pyrimidin-2-amine]

SMILES	inhibition at 0.5 µM	inhibition (%) at 500 nM
Fc1cc2c(cc1F)CC(Nc1ncc(C3CC(N4CCC(c5cnn[nH]5)CC4)=NO3)cn1)C2 (stereo not shown) [Example 37, N-(5,6-difluoroindan-2-yl)-5-[3-[4-(1H-triazol-5-yl)-1-piperidyl]-4,5-dihydroisoxazol-5-yl]pyrimidin-2-amine]	–	93.2%
c1cc2c(cc1CNc1ncc(-c3cc(N4CCC(c5cnn[nH]5)CC4)no3)cn1)OCO2 [Example 46, N-(1,3-benzodioxol-5-ylmethyl)-5-[3-[4-(1H-triazol-5-yl)-1-piperidyl]isoxazol-5-yl]pyrimidin-2-amine]	–	1%
